Assay results as given in patent publication US20150216925A1, “AGENT FOR PREVENTING OR AM[…] ENDOTHELIAL MALFUNCTION” (KYOWA HAKKO BIO CO., LTD., priority 2012, published 2015).

Test system: normal human umbilical vein endothelial cell (HUVEC)
Assay: NO production (nitrite in culture supernatant) in HUVEC, HPLC
Type: cell-based
Details: 24-hour culture, FIG. 1
Experimental: A normal human umbilical vein endothelial cell (HUVEC) line available from Clonetics (SanDiego, Calif., USA) was used with EGM-2 Bullet Kit medium containing 2% FBS (Takara Bio). The cells were cultured in at 37° C., in 5% CO2 incubator, and used for experiment after 4 to 6 passages. Citrulline and reduced glutathione were obtained from Kyowa Hakko Bio.
A cell suspension (0.45 mL) with the adjusted initial cell concentration of 5×10^5 cells/mL was inoculated in a 24-well plate (IWAKI). After 40-hour culture, the media were replaced with those containing citrulline (final concentration 0.3 mM: citrulline group), reduced glutathione (final concentration 1 mM: high-dose glutathione group), and a citrulline and reduced glutathione mixture (citrulline final concentration 0.3 mM; glutathione final concentration 0.3 mM: citrulline+low-dose glutathione group). Media with the sole addition of solvent (PBS) were used as a control group. After 24-hour culture, the cell culture (100 μL) was centrifuged at 12,000 rpm for 10 minutes, and the concentration of nitrite (NO2), which is the stable NO metabolite, in culture supernatant was quantified by HPLC (ENO-20, EICOM).

## NC(=O)NCCC[C@H](N)C(=O)O [citrulline, L-citrulline]
Citrulline final concentration 0.3 mM
  effect on NO production (nitrite NO2 concentration in medium): no effect

## N[C@@H](CCC(=O)N[C@@H](CS)C(=O)NCC(=O)O)C(=O)O [glutathione, γ-L-Glu-L-Cys-Gly]
Reduced glutathione final concentration 1 mM (high-dose)
  effect on NO production (nitrite NO2 concentration in medium): no effect
